Reference: patent publication US20070099839A1, “Inhibitors of cell migration” (CIT CANCER TARGETING TECHNOLOGIES, priority 2001, published 2007)
Each block holds one molecule with its values, some of them ahead of it. No end group written: not given here.

Tests used:
PMNs [1] = test: PMN transendothelial migration through HMEC monolayer; format: cell-based, human; settings: chemotaxis with C5a or TNF-α, peptides 200 μM, antibodies 20 μg/ml, FIG. 6B
Protocol: (§1) FIG. 6A to 6D. Blockage of PMN and THP-1 cell migration in vitro by gelatinase and β2 integrin inhibitors. PMNs (1×10^5 in 100 μl) were applied on the LLG-C4-GST or GST coated surface (6A) or HMEC monolayer (6B) in the absence or presence of peptides (200 μM) or antibodies (20 μg/ml) as indicated. PMNs were stimulated with 20 nM PMA (6A), HMECs with […] or 10 ng/ml TNFα or left untreated (6B). THP-1 cells (5×10^4 in 100 μl) were stimulated with 50 nM PMA and applied on the coated surfaces together with each peptide (200 μM) (6C). The cells migrated through transwell filters were stained and counted microscopically. All experiments were repeated at least twice. (6D) Phorbol ester-activated THP-1 cells (5×10^4 in 100 μl) were incubated for 16 h at +37° C. in the presence or absence of peptides as indicated. The conditioned medium was analyzed by gelatin zymography.
(§2) Cell migration was conducted using Costar 24-transwell migration chambers with a 3 μm pore size for PMNs and 8 μm for THP-1 cells. To study β2 integrin-directed migration, the chamber membrane was coated on both sides with LLG-C4-GST integrin ligand (40 μg/ml) or GST as a control and blocked with 10% serum-containing medium (16). […] The non-migrated cells were removed from the upper surface by a cotton swab and the cells that had traversed the filters were stained with crystal violet and counted.

PMNs [2] = test: PMN adhesion to immobilized proMMP-9 (phosphatase assay); format: cell-based, human; settings: PMA-stimulated PMNs; peptide 50 μM, antibody 20 μg/ml; FIG. 5C
Protocol: FIG. 5A to 5D. Recognition of recombinant MMP-9 domains by αMβ2 integrin-expressing cells. The studied cells were PMNs (5A, 5B, 5C), αMβ2 L-cell transfectants (5D), non-transfectants (5D), and LAD-1 cells (5D). PMNs were in resting state or stimulated with PMA (5A, 5C) or C5a or TNFα (5B) before the binding experiment to proMMP-9 or its domains. Cells were also pretreated with each peptide (50 μM), antibody (20 μg/ml) or the αM I domain as indicated. Unbound cells were removed by washing and the number of adherent cells was quantitated by a phosphatase assay. The experiment was repeated three times with similar results.
MMP-9 proteins (200 nM in PBS) were coated at +4° C. for 16 h and the microtiter wells were blocked with 3% BSA in PBS for 1 h at room temperature. The αMβ2-integrin L-cell transfectants and PMNs (1×10^5 cells/well) were suspended in RPMI medium supplemented with 2 mM MgCl2 and 0.1% BSA and activated with PMA (20 nM) for 20 min, or with C5a (50 nM) or TNF-α (10 nM) for 4 h at +37° C. The L926 wild type and LAD-1 cells were used as controls. The cells were treated with the indicated antibody (20 μg/ml) or peptide (50 μM) at +37° C. for 30 min, washed twice with serum-free medium and incubated in the microtiter wells at +37° C. for 30 min. The wells were washed with PBS, and the number of adherent cells was quantitated by a phosphatase assay (25).

PMNs [3] = test: PMN transwell migration on LLG-C4-GST coated filters; format: cell-based, human; settings: LLG-C4-GST substratum; peptides 200 μM, antibodies 20 μg/ml; 20 nM PMA; FIG. 6A
Protocol: as §1, §2

proMMP-9 (Homo sapiens) = biological target: T1, proMMP-9 (Homo sapiens); test: Binding of GST-αM I domain to immobilised proMMP-9 with competitors; settings: competitors 50 μM; FIG. 4D
T1 construct: GST-αM and GST-αL I domain fusion proteins were expressed and purified as described previously (30); made in house
Protocol: (§3) (4D) Binding of GST-αM I domain to the immobilised proMMP-8, proMMP-9, ICAM-1, and fibrinogen was studied with ICAM-1, DDGW or KKGW (50 μM) as competitors. In control wells, GST was added instead of GST-αM I domain. The experiment was repeated three times with similar results.
(§4) ICAM-1, fibrinogen, proMMP-8, proMMP-9 or the recombinant domains (0.5 μg/well in PBS) were coated on plastic 96-well plates at +4° C. for 16 h and the wells were blocked with 3% bovine serum albumin (BSA) in PBS for 2 h at room temperature. Binding of the GST-αM I domain was determined essentially as described in the first priority application. In the reverse assay, GST-αM I domain was coated and binding of proMMP-9 was determined using the GE-213 antibody. Competitor peptides were preincubated with the αM I-domain for 20 minutes before the experiment.

THP-1 cells [4] = settings: FI 2003 0923; cited from earlier work
THP-1 cells [5] = test: THP-1 cell migration through LLG-C4-GST coated transwell filters; format: cell-based, human; settings: LLG-C4GST coated filters; 50 nM PMA; peptides 200 μM; 16 h; FIG. 6C
Protocol: as §1, §2

[6] = system: intraperitoneal accumulation of PMNs; test: Mouse model of thioglycolate-induced peritonitis; format: in vivo; settings: for prevention of thioglycolate-induced increase in gelatinase levels in intraperitoneal fluid (zymography): DDGW 0.1, HFDDDE 0.2, DFEDHD 0.2 mg per mouse intravenously, FIG. 7D; for inhibition of intraperitoneal accumulation of PMNs: intravenous tail injection, 3 h after thioglycolate, FIG. 7A
Protocol: (7A) Mice were injected with thioglycolate or PBS intraperitoneally. The peptides were applied intravenuously at the amounts indicated (A). After 3 h, the intraperitoneal leukocytes were harvested and counted. […] (*) indicates statistical significant difference (p<0.001). The experiment was repeated at least 3 times. The infiltrated neutrophils of mice treated with thioglycolate (7B) or PBS (7C) were stained with anti-MMP-9 and anti-αM, as described in the FIG. 3 legend. Fluorescence was studied by confocal microscopy. Bars: 9.1 μm and […], respectively.
(7D) Gelatinolytic activity of the supernatants from the peritoneal cavities of mice collected as in (7A). Lanes 1-4: samples are from thioglycolate-treated mice; lane 5: a sample from PBS-treated mouse. DDGW, HFDDDE, and DFEDHD were injected intravenously at doses of 0.1, 0.2 and 0.2 mg per mouse. The arrows show proMMP-9 dimer, proMMP-9 and proMMP-2. The experiment was repeated three times with similar results.
Balb/c mice at the age of 31-32 weeks were injected intraperitoneally with 3% (w/v) thioglycolate in sterile saline (32). Peptides ([…] in 100 μl) were introduced intravenously through the tail vein. Animals were euthanized after 3 h and the peritoneal cells were harvested by injecting 10 ml of sterile PBS through the peritoneal wall. Red blood cells present in the lavage fluid were removed by hypotonic lysis. Cells were centrifuged and resuspended in 1 ml of sterile 0.25% BSA/Krebs-Ringer. The supernatants were also collected and analysed by gelatin zymography. The number of neutrophils was determined following staining with 0.1% crystal violet and using a light microscope equipped with a ×100 objective. For immunofluorescence staining, cells were allowed to bind to poly-L-lysine coated cover slips, fixed with 2.5% paraformaldehyde in PBS at +4° C. for 30 min followed by several washings. The Fc receptors were blocked in the presence of 20% of rabbit serum and 3% BSA in PBS. The cells were then incubated with anti-MMP-9 polyclonal and αM monoclonal (MCA74) antibodies for 30 min. After washing with PBS, the secondary antibodies, rhodamine (TRITC)-conjugated anti-rabbit or FITC-conjugated anti-rat (Fab′)2 were incubated for another 30 min. The samples were examined with a confocal microscope. The animal studies were approved by an ethical committee of Helsinki University.

[7] = system: leukocyte primary adhesion to ICAM-1, fibrinogen or LLG-C4GST; test: Leukocyte primary adhesion to ICAM-1, fibrinogen or LLG-C4GST; format: cell-based
αM I domain = biological target: T2, αM I domain (Homo sapiens, UniProt P11215); test: Binding of proMMP-9 to immobilized GST-αM I domain in the presence of competitor peptides (detected with GE-213 antibody); settings: FIG. 4C
T2 construct: GST-αM and GST-αL I domain fusion proteins were expressed and purified as described previously (30); made in house
Protocol: (4C) Binding of proMMP-9 to the immobilized GST-αM I domain was studied in the presence of each peptide at the concentrations indicated. The binding was determined with the anti-MMP-9 antibody GE-213.
as §4

proMMP-8 (Homo sapiens) = biological target: T3, proMMP-8 (Homo sapiens); test: Binding of GST-αM I domain to immobilised proMMP-8 with competitors; settings: competitors 50 μM; FIG. 4D
T3 construct: GST-αM and GST-αL I domain fusion proteins were expressed and purified as described previously (30); made in house
Protocol: as §3, §4

MMP-9 catalytic domain = test: Binding to the MMP-9 catalytic domain (unpublished results)
THP-1 cells [8] = test: Effect of peptides on gelatinase release from THP-1 cells (gelatin zymography); format: cell-based, human; settings: phorbol ester-activated cells; peptides 200 μM; 16 h; FIG. 6D
Protocol: as §1
THP-1 cells (50 000/100 μl) were incubated in serum-free RPMI for 16 h in the presence or absence of peptides (200 μM) as described in the text The supernatants from THP-1 cells and mouse intraperitoneal fluid were analysed by gelatin zymography. Gelatinolytic activity was quantified by densitometric scanning.

T2 sequence (P11215 150-328 limits assumed): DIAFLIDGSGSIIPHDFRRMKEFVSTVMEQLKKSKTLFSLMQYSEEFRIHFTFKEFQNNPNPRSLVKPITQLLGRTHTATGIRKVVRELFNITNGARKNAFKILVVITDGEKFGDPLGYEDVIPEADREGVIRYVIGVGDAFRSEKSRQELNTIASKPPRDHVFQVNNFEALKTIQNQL
T1 sequence (P11215 150-328 limits assumed): as above
T3 sequence (P11215 150-328 limits assumed): as above
Chain of MMP-9 catalytic domain (P14780 107-444 limits assumed): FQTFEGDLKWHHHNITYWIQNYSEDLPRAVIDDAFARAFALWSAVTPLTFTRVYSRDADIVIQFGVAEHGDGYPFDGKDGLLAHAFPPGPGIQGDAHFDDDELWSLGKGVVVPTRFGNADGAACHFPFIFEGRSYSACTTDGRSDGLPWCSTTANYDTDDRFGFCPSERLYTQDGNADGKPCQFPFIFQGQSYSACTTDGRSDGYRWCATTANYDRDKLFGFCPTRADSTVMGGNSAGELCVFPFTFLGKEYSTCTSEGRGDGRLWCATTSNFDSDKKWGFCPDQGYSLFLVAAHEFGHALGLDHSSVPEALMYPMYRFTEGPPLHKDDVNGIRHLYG

Molecule: ADGACILWMDDGWCGAAG
inhibition of PMN transendothelial migration (PMNs [1]): inhibition | inhibition of PMN adherence on proMMP-9 (PMNs [2]): inhibited | inhibition of migration of PMA-stimulated PMNs (PMNs [3]): worked similarly | competition with αM I domain binding to proMMP-9 (proMMP-9 (Homo sapiens)): inhibitable | release of proMMP-9 from THP-1 cells (previous studies) (THP-1 cells [4]): can release proMMP-9 | inhibition of THP-1 migration (THP-1 cells [5]): inhibited | activity on intraperitoneal PMN accumulation ([6]; 5 μg given per mouse, intravenous): active | prevention of thioglycolate-induced increase in gelatinase levels in intraperitoneal fluid (zymography) [6]: prevented the increase | effective dose ([6]; corresponding to 5 μg given per mouse): 0.1 mg/kg mouse tissue | inhibition of intraperitoneal accumulation of PMNs [6]: inhibited | inhibition of leukocyte primary adhesion to ICAM-1, fibrinogen or LLG-C4GST [7]: unable to inhibit | inhibition of proMMP-9 binding to the αM I domain (in words) (αM I domain): equally potent | competition with αM I domain binding to proMMP-8 (proMMP-8 (Homo sapiens)): inhibitable

Molecule: CTITHWGFTLC [CTT]
inhibition of PMN transendothelial migration (PMNs [1]): inhibition | binding to the MMP-9 catalytic domain (MMP-9 catalytic domain): binds | inhibition of PMN adherence on proMMP-9 (PMNs [2]): inhibited | inhibition of migration of PMA-stimulated PMNs (PMNs [3]): worked similarly | inhibition of THP-1 migration (THP-1 cells [5]): inhibited

Molecule: HFDDDE [HFDDDE]
IC50 (αM I domain; read-out: inhibition of proMMP-9 binding to the αM I domain, IC50): 20 µM

Molecule: fibrinogen
competition with αM I domain binding to proMMP-9 (proMMP-9 (Homo sapiens)): did not compete | competition with αM I domain binding to proMMP-8 (proMMP-8 (Homo sapiens)): did not compete

Second part, led by results:

inhibition of PMN adherence on proMMP-9 (PMNs [2]): no effect | inhibition of proMMP-9 binding to the αM I domain (in words) (αM I domain): without effect
Molecule: ADGACILWMKKGWCGAAG [control peptide for DDGW]
inhibition of intraperitoneal accumulation of PMNs [6]: no effect

inhibition of PMN adherence on proMMP-9 (PMNs [2]): no effect | inhibition of proMMP-9 binding to the αM I domain (in words) (αM I domain): inactive
Molecule: DFEDHD
prevention of thioglycolate-induced increase in gelatinase levels in intraperitoneal fluid (zymography) [6]: not | inhibition of intraperitoneal accumulation of PMNs [6]: no effect | release of proMMP-9 from THP-1 cells (THP-1 cells [8]): did not induce

competition with αM I domain binding to proMMP-9 (proMMP-9 (Homo sapiens)): did not compete | competition with αM I domain binding to proMMP-8 (proMMP-8 (Homo sapiens)): did not compete
B1: ICAM-1: intracellular adhesion molecule 1, β2 integrin ligand used as competitor (protein, UniProt P05362 28-532, looked up)
Intercellular adhesion …: QTSVSPSKVILPRGGSVLVTCSTSCDQPKLLGIETPLPKKELLLPGNNRKVYELSNVQEDSQPMCYSNCPDGQSTAKTFLTVYWTPERVELAPLPSWQPVGKNLTLRCQVEGGAPRANLTVVLLRGEKELKREPAVGEPAEVTTTVLVRRDHHGANFSCRTELDLRPQGLELFENTSAPYQLQTFVLPATPPQLVSPRVLEVDTQGTVVCSLDGLFPVSEAQVHLALGDQRLNPTVTYGNDSFSAKASVSVTAEDEGTQRLTCAVILGNQSQETLQTVTIYSFPAPNVILTKPEVSEGTEVTVKCEAHPRAKVTLNGVPAQPLGPRAQLLLKATPEDNGRSFSCSATLEVAGQLIHKNQTRELRVLYGPRLDERDCPGNWTWPENSQQTPMCQAWGNPLPELKCLKDGTFPLPIGESVTVTRDLEGTYLCRARSTQGEVTRKVTVNVLSPRYEIVIITVVAAAVIMGTAGLSTYLYNRQRKIKKYRLQQAQKGTPMKPNTQATPP
